Values of other authors as cited in article PMC8288134, “Synthesis, potential antitumor activity, cell cycle analysis, and multitarget mechanisms of novel hydrazones incorporating a 4-methylsulfonylbenzene scaffold: a molecular docking study” (Journal of Enzyme Inhibition and Medicinal Chemistry, 2021).

Assays:
[1] = tested on: SR; set-up: method as in https://dtp.cancer.gov/dtpstandard/dwindex/index.jsp; conditions: reference drugs, ref https://dtp.cancer.gov/dtpstandard/dwindex/index.jsp; cited from earlier work
[2] = tested on: SNB-75; set-up: method as in https://dtp.cancer.gov/dtpstandard/dwindex/index.jsp; conditions: reference drugs, ref https://dtp.cancer.gov/dtpstandard/dwindex/index.jsp; cited from earlier work
[3] = tested on: SK-OV-3; set-up: method as in https://dtp.cancer.gov/dtpstandard/dwindex/index.jsp; conditions: reference drugs, ref https://dtp.cancer.gov/dtpstandard/dwindex/index.jsp; cited from earlier work
[4] = tested on: A498; set-up: method as in https://dtp.cancer.gov/dtpstandard/dwindex/index.jsp; conditions: reference drugs, ref https://dtp.cancer.gov/dtpstandard/dwindex/index.jsp; cited from earlier work
[5] = tested on: SW-620; set-up: method as in https://dtp.cancer.gov/dtpstandard/dwindex/index.jsp; conditions: reference drugs, ref https://dtp.cancer.gov/dtpstandard/dwindex/index.jsp; cited from earlier work
[6] = tested on: OVCAR-5; set-up: method as in https://dtp.cancer.gov/dtpstandard/dwindex/index.jsp; conditions: reference drugs, ref https://dtp.cancer.gov/dtpstandard/dwindex/index.jsp; cited from earlier work
[7] = tested on: SF-295; set-up: method as in https://dtp.cancer.gov/dtpstandard/dwindex/index.jsp; conditions: reference drugs, ref https://dtp.cancer.gov/dtpstandard/dwindex/index.jsp; cited from earlier work
[8] = tested on: HCT-15; set-up: method as in https://dtp.cancer.gov/dtpstandard/dwindex/index.jsp; conditions: reference drugs, ref https://dtp.cancer.gov/dtpstandard/dwindex/index.jsp; cited from earlier work
[9] = tested on: renal cancer tumour cell lines; conditions: cited from earlier work; for GI50: read-out: GI50 (subpanel average), reference drugs, ref https://dtp.cancer.gov/dtpstandard/dwindex/index.jsp; for CC50: read-out: LC50 (subpanel average), reference drugs, ref https://dtp.cancer.gov/dtpstandard/dwindex/index.jsp; for TGI (subpanel average): reference drugs, ref https://dtp.cancer.gov/dtpstandard/dwindex/index.jsp
[10] = tested on: NCI-H460; set-up: method as in https://dtp.cancer.gov/dtpstandard/dwindex/index.jsp; conditions: reference drugs, ref https://dtp.cancer.gov/dtpstandard/dwindex/index.jsp; cited from earlier work
[11] = tested on: SN12C; set-up: method as in https://dtp.cancer.gov/dtpstandard/dwindex/index.jsp; conditions: reference drugs, ref https://dtp.cancer.gov/dtpstandard/dwindex/index.jsp; cited from earlier work
[12] = tested on: MCF7; set-up: method as in https://dtp.cancer.gov/dtpstandard/dwindex/index.jsp; conditions: reference drugs, ref https://dtp.cancer.gov/dtpstandard/dwindex/index.jsp; cited from earlier work
[13] = tested on: LOX IMVI; set-up: method as in https://dtp.cancer.gov/dtpstandard/dwindex/index.jsp; conditions: reference drugs, ref https://dtp.cancer.gov/dtpstandard/dwindex/index.jsp; cited from earlier work
[14] = tested on: TK-10; set-up: method as in https://dtp.cancer.gov/dtpstandard/dwindex/index.jsp; conditions: reference drugs, ref https://dtp.cancer.gov/dtpstandard/dwindex/index.jsp; cited from earlier work
[15] = tested on: KM12; set-up: method as in https://dtp.cancer.gov/dtpstandard/dwindex/index.jsp; conditions: reference drugs, ref https://dtp.cancer.gov/dtpstandard/dwindex/index.jsp; cited from earlier work
[16] = tested on: SK-MEL-2; set-up: method as in https://dtp.cancer.gov/dtpstandard/dwindex/index.jsp; conditions: reference drugs, ref https://dtp.cancer.gov/dtpstandard/dwindex/index.jsp; cited from earlier work
[17] = tested on: UACC-62; set-up: method as in https://dtp.cancer.gov/dtpstandard/dwindex/index.jsp; conditions: reference drugs, ref https://dtp.cancer.gov/dtpstandard/dwindex/index.jsp; cited from earlier work
[18] = tested on: DU-145; set-up: method as in https://dtp.cancer.gov/dtpstandard/dwindex/index.jsp; conditions: reference drugs, ref https://dtp.cancer.gov/dtpstandard/dwindex/index.jsp; cited from earlier work
[19] = tested on: HOP-62; set-up: method as in https://dtp.cancer.gov/dtpstandard/dwindex/index.jsp; conditions: reference drugs, ref https://dtp.cancer.gov/dtpstandard/dwindex/index.jsp; cited from earlier work
[20] = tested on: SF-268; set-up: method as in https://dtp.cancer.gov/dtpstandard/dwindex/index.jsp; conditions: reference drugs, ref https://dtp.cancer.gov/dtpstandard/dwindex/index.jsp; cited from earlier work
[21] = tested on: colon cancer tumour cell lines; conditions: cited from earlier work; for GI50: read-out: GI50 (subpanel average), reference drugs, ref https://dtp.cancer.gov/dtpstandard/dwindex/index.jsp; for CC50: read-out: LC50 (subpanel average), reference drugs, ref https://dtp.cancer.gov/dtpstandard/dwindex/index.jsp; for TGI (subpanel average): reference drugs, ref https://dtp.cancer.gov/dtpstandard/dwindex/index.jsp
[22] = tested on: melanoma tumour cell lines; conditions: cited from earlier work; for GI50: read-out: GI50 (subpanel average), reference drugs, ref https://dtp.cancer.gov/dtpstandard/dwindex/index.jsp; for CC50: read-out: LC50 (subpanel average), reference drugs, ref https://dtp.cancer.gov/dtpstandard/dwindex/index.jsp; for TGI (subpanel average): reference drugs, ref https://dtp.cancer.gov/dtpstandard/dwindex/index.jsp

Compound	GI50 [1]	GI50 [2]	GI50 [3]	GI50 [4]	GI50 [5]	GI50 [6]	GI50 [7]	GI50 [8]	GI50 [9]	CC50 [9]	TGI (subpanel average) [9]	GI50 [10]	GI50 [11]	GI50 [12]	GI50 [13]	GI50 [14]	GI50 [16]	GI50 [18]	GI50 [19]	GI50 [20]	further results
Cc1ccc(-c2cc(C(F)(F)F)nn2-c2ccc(S(N)(=O)=O)cc2)cc1 [Celecoxib, celecoxib]	15.8 µM	15.8 µM	20000 nM	15.8 µM	15.8 µM	19.9 µM	15.8 µM	15.8 µM	19900 nM	61.2 µM	41.19 µM	15.8 µM	15.8 µM	15.8 µM	19.9 µM	19.9 µM	15.8 µM	15.8 µM	63.1 µM	15.8 µM	GI50 [15]: 15.8 µM; GI50 [17]: 15.8 µM; GI50 [21]: 20.7 µM; CC50 [21]: 66.5 µM; TGI (subpanel average) [21]: 41.39 µM; GI50 [22]: 22.5 µM; CC50 [22]: 64.3 µM; TGI (subpanel average) [22]: 38.49 µM
C#Cc1cccc(Nc2ncnc3cc(OCCOC)c(OCCOC)cc23)c1 [Erlotinib, erlotinib]	10 µM	12.6 µM	500 nM	2.51 µM	79.4 µM	7.94 µM	15.8 µM	3.98 µM	2460 nM	89.2 µM	42.59 µM	6.31 µM	1.58 µM	100 µM	6.31 µM	0.251 µM	6.31 µM	1.99 µM	15.8 µM	15.8 µM	GI50 [15]: 79.4 µM; GI50 [17]: 3.16 µM; GI50 [21]: 51.7 µM; CC50 [21]: > 100 µM; TGI (subpanel average) [21]: c (Compounds showed values ≥ 100 µM); GI50 [22]: 23.7 µM; CC50 [22]: 93.3 µM; TGI (subpanel average) [22]: 77.89 µM
CNC(=O)c1cc(Oc2ccc(NC(=O)Nc3ccc(Cl)c(C(F)(F)F)c3)cc2)ccn1 [Sorafenib, sorafenib]	3.16 µM	3.16 µM	2510 nM	2.51 µM	2.51 µM	3.16 µM	–	2.51 µM	2860 nM	54.8 µM	10.86 µM	2.51 µM	2.51 µM	2.51 µM	–	3.98 µM	1.99 µM	3.16 µM	1.99 µM	2.51 µM	GI50 [21]: 2.19 µM; CC50 [21]: 38.1 µM; TGI (subpanel average) [21]: 7.94 µM; GI50 [22]: 1.87 µM; CC50 [22]: 28.6 µM; TGI (subpanel average) [22]: 6.29 µM
CS(=O)(=O)c1ccc(C(=O)Nc2ccc(Cl)c(-c3ccccn3)c2)c(Cl)c1 [Vismodegib, vismodegib]	39.8 µM	25.1 µM	–	31.6 µM	63.1 µM	100 µM	31.6 µM	31.6 µM	–	–	–	39.8 µM	39.8 µM	31.6 µM	39.8 µM	63.1 µM	39.8 µM	50.1 µM	79.4 µM	39.8 µM	GI50 [15]: 31.6 µM; GI50 [17]: 31.6 µM
